From publication PMC12104674 (Frontiers in Pharmacology, 2025)
pIC50: −log10 of the molar value. Where two headings read alike, the source gives them in different places.

Legend:
[1] = Pyrotinib plasma pharmacokinetics with/without montmorillonite powder (Group A), LC-MS/MS, NCA; type: in vivo, healthy volunteers; conditions: for Tmax: median (minimum, maximum); for Vd/F: read-out: Vz/F
Method: (§1) On day 1, all subjects received a single oral dose of 400 mg pyrotinib after breakfast. […] Subjects in Group B received a single oral dose of 400 mg pyrotinib and 4 mg loperamide after breakfast on day 9, followed by additional doses of 2 mg loperamide at 2 h and 4 h post-administration.
(§2) Blood samples were collected at baseline (within 30 min prior to drug administration) and at 1, 2, 3, 4, 5, 6, 7, 8, 10, 12, 24, 48, 72, and 96 h following pyrotinib administration on days 1 and 9 to measure the concentration of pyrotinib in the plasma. After completion of the study on day 13, subjects underwent a final examination and were subsequently discharged. A safety follow-up was conducted between days 16 and 19.
(§3) The analysis of plasma samples for pyrotinib was based on a validated and sensitive liquid chromatography-tandem mass spectrometry (LC-MS/MS) method with high specificity. The plasma samples were stored at −70°C and analyzed within a stability period of 176 days. The calibration range for the standard curve was between 1.00 and 500 ng/mL, and the regression equation used linear fitting with a weighting factor of W = 1/X^2 (bioanalysis method validation report, data on file). In each batch of analysis, the number of quality control (QC) samples accounted for more than 5% of the unknown samples in that batch. […] Representative chromatograms of pyrotinib at the LLOQ (lower limit of quantification) and in a plasma sample can be found in the Supplementary Material.
(§4) The individual pharmacokinetic parameters of pyrotinib would be calculated using non-compartmental analysis (NCA) and summarized by groups and combination status with descriptive statistics. To estimate the difference in the least-square means between the combination treatment and pyrotinib alone, a mixed-effects model was used to analyze the natural log-transformed pharmacokinetic parameters of pyrotinib (including AUC0- ∞ , AUC0-t, and Cmax) for each group. The model included treatment as a fixed effect and subject as a random effect. Results were exponentiated to obtain geometric least-squares means, geometric mean ratios, and corresponding 90% confidence intervals (CIs) on the original scale. […] To account for a 10% dropout rate, 18 subjects were planned for each of Groups A and B, resulting in a total of 36 subjects.

[2] = Safety analysis (TEAEs), Group A; type: in vivo, healthy volunteers
Method: (§5) As summarized in Figure 1, the participants were divided into two groups: […] On day 1, all subjects received a single oral dose of 400 mg pyrotinib after breakfast. […] Subjects were instructed to have a light meal the night before the administration of the drug and to fast for 10 h overnight. Safety assessments included adverse events (AEs), physical examinations, vital signs, 12-lead ECGs, and clinical laboratory tests (hematology, serum chemistry, and urinalysis).

[3] = Safety analysis (TEAEs), Group B; type: in vivo, healthy volunteers
Method: as §5

[4] = test system: untreated HER2-positive metastatic breast cancer; conditions: cited from earlier work
[5] = Pyrotinib plasma pharmacokinetics with/without loperamide (Group B), LC-MS/MS, NCA; type: in vivo, healthy volunteers
Method: as §1, §2, §3, §4

[6] = design: method as in data on file; conditions: healthy volunteers, ref data on file, cited from earlier work
[7] = test system: CYP3A4; assay: Calculated R1 / R1,gut for reversible CYP3A4 inhibition by loperamide
[8] = test system: albumin; conditions: of loperamide available in blood; cited from earlier work
[9] = cited from earlier work; for bioavailability: oral loperamide, significant first-pass effect, ref IMODIUM package insert (2016)
[10] = test system: CYP3A4; design: method as in Marechal et al., 2006; conditions: CYP3A4 inhibition; ref Marechal et al., 2006; cited from earlier work
[11] = combination with montmorillonite powder/pyrotinib alone
[12] = human, plasma, oral, Group A, pyrotinib alone, 400 mg, day 1, geometric mean (geometric CV)
[13] = with montmorillonite powder 2 h after pyrotinib vs. pyrotinib alone
[14] = combination with loperamide/pyrotinib alone
[15] = with loperamide vs. pyrotinib alone

With `CCOc1cc2ncc(C#N)c(Nc3ccc(OCc4ccccn4)c(Cl)c3)c2cc1NC(=O)/C=C/[C@H]1CCCN1C` [Pyrotinib] the CL/F ([1]; Group A, 400 mg pyrotinib then 3 g montmorillonite powder 2 h later, day 9, geometric mean (geometric CV)) was 315 L/h, the CL/F ([1]; Group A, pyrotinib alone, 400 mg, day 1, geometric mean (geometric CV)) was 213 L/h and the CL/F ([1]; Group A, pyrotinib alone, 400 mg, day 1, geometric mean (geometric CV), listed as Pyrtonib) was 213 (40.5) L/h. For the same compound, the “geometric mean ratio (90% CI), AUC0-t” value [1, 11] was 0.669 (0.601, 0.745), the “geometric mean ratio (90% CI), AUC0-∞” value [1, 11] was 0.676 (0.610, 0.749) and the “geometric mean ratio (90% CI), Cmax” value [1, 11] was 0.733 (0.670, 0.803). The half-life ([1]; human, plasma, oral) was 16.3 h, the AUC(0-inf) ([1]; human, plasma, oral, 400 mg, Group A, pyrotinib alone, 400 mg, day 1, geometric mean (geometric CV), read-out: AUC0-∞) was 1880 ng·h/mL and the Tmax ([1]; human, plasma, oral, 400 mg, Group A, pyrotinib alone, 400 mg, day 1) was 5 h. It also gave an AUC(0-t) ([1]; human, plasma, oral, 400 mg, Group A, pyrotinib alone, mixed-effects model, read-out: Geometric least-square mean AUC0-t) of 1830 ng·h/mL, an AUC(0-inf) ([1]; human, plasma, oral, 400 mg, Group A, pyrotinib alone, mixed-effects model, read-out: Geometric least-square mean AUC0-∞) of 1880 ng·h/mL and an AUC(0-inf) ([1]; human, plasma, oral, Group A, 400 mg pyrotinib then 3 g montmorillonite powder 2 h later, day 9, geometric mean (geometric CV), read-out: AUC0-∞) of 1270 ng·h/mL. The Tmax ([1]; human, plasma, oral, Group A, 400 mg pyrotinib then 3 g montmorillonite powder 2 h later, day 9) was 3.51 h, the decrease in Tmax ([1]; human, plasma, oral, with montmorillonite powder vs. pyrotinib alone, read-out: time to maximum concentration earlier by) was 1.5 h and the Cmax [1, 12] was 105 ng/mL. It also gave a Vd/F [1, 12] of 4580 L, a half-life ([1]; human, plasma, oral, Group A, pyrotinib alone, 400 mg, day 1, mean (SD)) of 15.5 h and a Vd/F ([1]; human, plasma, oral) of 7120 L. The AUC(0-t) ([1]; human, Group A, pyrotinib alone, single oral 400 mg after breakfast, day 1, plasma pyrotinib, geometric mean (geometric CV), read-out: AUC0-t) was 1840 ng·h/mL, the “reduction in exposure of pyrotinib” value ([1]; montmorillonite powder at 2-h interval) was 33% and the “decrease in AUC0-t of pyrotinib” value [1, 13] was 33.1%. For the same compound, the “decrease in AUC0-∞ of pyrotinib” value [1, 13] was 32.4%, the “decrease in Cmax of pyrotinib” value [1, 13] was 26.7% and the “change in t1/2 of pyrotinib” value ([1]; with montmorillonite powder vs. pyrotinib alone) was “no significant change”. The incidence of hypertriglyceridemia ([2]; Group A) was 11.1%, the serious adverse events ([2]; Group A) was “No serious adverse events” and the “number of treatment-emergent adverse events (TEAEs)” value ([2]; Group A (N = 18)) was 11. The “subjects who experienced TEAEs” value ([2]; Group A (N = 18), pyrotinib 400 mg day 1 and pyrotinib + montmorillonite powder day 9) was “eight”, the “severity of TEAEs” value ([2]; Group A, all TEAEs) was “mild (Grade 1)” and the “incidence of each other TEAE” value ([2]; Group A, hypercholesterolemia, nausea, abdominal distension, ALT elevation, AST elevation, bradycardia, elevated blood bilirubin, upper respiratory tract infection, orthostatic hypotension (each)) was 5.6%. For the same compound, the incidence of hypertriglyceridemia ([3]; Group B) was 22.2%, the incidence of hyperuricemia ([3]; Group B) was 11.1% and the “incidence of oral ulcer” value ([3]; Group B) was 11.1%. The incidence of rash ([3]; Group B) was 11.1%, the serious adverse events ([3]; Group B) was “No serious adverse events” and the “number of treatment-emergent adverse events (TEAEs)” value ([3]; Group B (N = 18)) was 18. For the same compound, the “subjects who experienced TEAEs” value ([3]; Group B (N = 18), pyrotinib 400 mg day 1 and pyrotinib + loperamide day 9) was 12 subjects, the “incidence of each other TEAE” value ([3]; Group B, nausea, abdominal distension, PR interval prolongation on ECG, increased heart rate, increased total bile acid, headache, dizziness (each)) was 5.6% and the “progression-free survival (PFS)” value ([4]; pyrotinib combined with trastuzumab and docetaxel, ref Ma et al., 2023) was 24.3 months. The “incidence of diarrhea grade 3 or higher” value ([4]; pyrotinib group (138/297), ref Ma et al., 2023) was 46%, the incidence of diarrhea ([4]; pyrotinib group (293/297), ref Ma et al., 2023) was 99% and the “hazard ratio (PFS)” value ([4]; pyrotinib vs. placebo, each with trastuzumab and docetaxel, ref Ma et al., 2023) was 0.41. The duration of diarrhea ([4]; usually, ref Ma et al., 2023) was 2 to 3 days, the CL/F ([5]; Group B, 400 mg pyrotinib + loperamide 4+2+2 mg, day 9, geometric mean (geometric CV)) was 160 L/h and the CL/F ([5]; Group B, pyrotinib alone, 400 mg, day 1, geometric mean (geometric CV)) was 189 L/h. The CL/F ([5]; Group B, pyrotinib alone, 400 mg, day 1, geometric mean (geometric CV), listed as Pyrtonib) was 189 (26.7) L/h, the “geometric mean ratio (90% CI), AUC0-t” value [5, 14] was 1.18 (1.08, 1.28) and the “geometric mean ratio (90% CI), AUC0-∞” value [5, 14] was 1.19 (1.09, 1.29). The “geometric mean ratio (90% CI), Cmax” value [5, 14] was 0.946 (0.867, 1.03), the AUC(0-t) ([5]; human, oral, Group B, 400 mg pyrotinib + 4 mg loperamide, then 2 mg loperamide at 2 and 4 h, day 9, plasma pyrotinib, geometric mean (geometric CV), read-out: AUC0-t) was 2430 ng·h/mL and the AUC(0-inf) ([5]; human, plasma, oral, 400 mg, Group B, pyrotinib alone, 400 mg, day 1, geometric mean (geometric CV), read-out: AUC0-∞) was 2110 ng·h/mL. The AUC(0-t) ([5]; human, plasma, oral, 400 mg, Group B, pyrotinib alone, mixed-effects model, read-out: Geometric least-square mean AUC0-t) was 2060 ng·h/mL, the AUC(0-inf) ([5]; human, plasma, oral, 400 mg, Group B, pyrotinib alone, mixed-effects model, read-out: Geometric least-square mean AUC0-∞) was 2110 ng·h/mL and the AUC(0-inf) ([5]; human, plasma, oral, Group B, 400 mg pyrotinib + loperamide 4+2+2 mg, day 9, geometric mean (geometric CV), read-out: AUC0-∞) was 2500 ng·h/mL. It also gave a Cmax ([5]; human, plasma, oral, Group B, pyrotinib alone, 400 mg, day 1, geometric mean (geometric CV)) of 124 ng/mL, a Vd/F ([5]; human, plasma, oral, Group B, pyrotinib alone, 400 mg, day 1, geometric mean (geometric CV), read-out: Vz/F) of 4520 L and a half-life ([5]; human, plasma, oral, Group B, pyrotinib alone, 400 mg, day 1, mean (SD)) of 17.3 h. The Tmax ([5]; human, plasma, oral, Group B, pyrotinib alone, 400 mg, day 1, median (minimum, maximum)) was 4.98 h, the AUC(0-t) ([5]; human, Group B, pyrotinib alone, single oral 400 mg after breakfast, day 1, plasma pyrotinib, geometric mean (geometric CV), read-out: AUC0-t) was 2060 ng·h/mL and the “change in median Tmax of pyrotinib” value [5, 15] was “no significant change”. The “decrease in Cmax of pyrotinib” value [5, 15] was “approximately 5.4%”, the “increase in AUC0-t of pyrotinib” value [5, 15] was “approximately 18%” and the “increase in AUC0-∞ of pyrotinib” value [5, 15] was roughly 19%. The “time to peak concentration” value ([6]; oral 400 mg pyrotinib) was “approximately 5 h” and the elimination half-life [6] was “approximately 18 h”.

In the case of `CN(C)C(=O)C(CCN1CCC(O)(c2ccc(Cl)cc2)CC1)(c1ccccc1)c1ccccc1` [loperamide], the “median PFS by antidiarrheal used in diarrhea management” value ([4]; ad hoc analysis, ref data on file) is given as 19.5 months, the “calculated R1 for reversible inhibition” value ([7]; CYP3A4) is given as “less than 1.0001” and the “calculated R1,gut” value ([7]; based on molecular weight of 477 Dalton, guidance cut off 11) is given as 1,342.7. For the same compound, the “fraction bound to albumin” value [8] was 95%, the maximum concentration ([9]; after 4 mg oral administration, ref Niemi et al., 2006) was […] and the bioavailability [9] was 0.3%. The bioavailability ([9]; listed as Loperamide) was “about 0.3%” and the pIC50 [10] was […].
